Measurements published in the NIST ThermoML archive (doi:10.1016/j.fluid.2013.06.041).
± gives the expanded uncertainty stated by the source.

How the values were obtained:
[1] = molar heat capacity at constant pressure; conditions: 101.33 kPa, Liquid, Small sample (50 mg) DSC
[2] = 101.33 kPa, Liquid, Vibrating tube method
[3] = xn = mol fraction of the nth substance listed; conditions: 101 kPa, Liquid, Small sample (50 mg) DSC

CC(O)CO (configuration not stated) [1,2-propanediol]
molar heat capacity at constant pressure ([1]; 283.15 K): 183.26 ± 7.8 J/K/mol
molar heat capacity at constant pressure ([1]; 293.15 K): 188.62 ± 8 J/K/mol
molar heat capacity at constant pressure ([1]; 298.15 K): 191.29 ± 8.1 J/K/mol
molar heat capacity at constant pressure ([1]; 303.15 K): 193.95 ± 8.2 J/K/mol
molar heat capacity at constant pressure ([1]; 313.15 K): 199.25 ± 8.5 J/K/mol
mass density ([2]; 283.15 K): 1043.89 ± 0.22 kg/m3
mass density ([2]; 293.15 K): 1036.58 ± 0.22 kg/m3
mass density ([2]; 298.15 K): 1032.86 ± 0.22 kg/m3
mass density ([2]; 303.15 K): 1029.1 ± 0.22 kg/m3
mass density ([2]; 313.15 K): 1021.48 ± 0.22 kg/m3

CCCCC(O)CO (configuration not stated) [1,2-hexanediol] + O
excess molar heat capacity ([3]; 283.15 K, x1 = 0.9437): 0.04 J/K/mol
excess molar heat capacity ([3]; 293.15 K, x1 = 0.04991): 0.35 ± 0.43 J/K/mol
excess molar heat capacity ([3]; 293.15 K, x1 = 0.1989): 0.68 ± 0.43 J/K/mol
excess molar heat capacity ([3]; 293.15 K, x1 = 0.2988): 1.31 ± 0.43 J/K/mol
excess molar heat capacity ([3]; 293.15 K, x1 = 0.4015): 0.89 ± 0.43 J/K/mol
excess molar heat capacity ([3]; 293.15 K, x1 = 0.4841): 1.13 ± 0.43 J/K/mol
excess molar heat capacity ([3]; 293.15 K, x1 = 0.5535): 1.45 ± 0.43 J/K/mol
excess molar heat capacity ([3]; 293.15 K, x1 = 0.6972): 0.9 ± 0.43 J/K/mol
excess molar heat capacity ([3]; 293.15 K, x1 = 0.7927): 0.92 ± 0.43 J/K/mol
excess molar heat capacity ([3]; 293.15 K, x1 = 0.8822): 0.82 ± 0.43 J/K/mol
excess molar heat capacity ([3]; 293.15 K, x1 = 0.9437): 0.68 ± 0.43 J/K/mol
excess molar heat capacity ([3]; 298.15 K, x1 = 0.09952): 0.87 ± 0.43 J/K/mol
excess molar heat capacity ([3]; 298.15 K, x1 = 0.1989): 1.97 ± 0.43 J/K/mol
excess molar heat capacity ([3]; 298.15 K, x1 = 0.2988): 2.52 ± 0.44 J/K/mol
excess molar heat capacity ([3]; 298.15 K, x1 = 0.4015): 2.19 ± 0.44 J/K/mol
excess molar heat capacity ([3]; 298.15 K, x1 = 0.4841): 2.22 ± 0.44 J/K/mol
excess molar heat capacity ([3]; 298.15 K, x1 = 0.5535): 2.33 ± 0.44 J/K/mol
excess molar heat capacity ([3]; 298.15 K, x1 = 0.6972): 1.63 ± 0.43 J/K/mol
excess molar heat capacity ([3]; 298.15 K, x1 = 0.7927): 1.26 ± 0.43 J/K/mol
excess molar heat capacity ([3]; 298.15 K, x1 = 0.8822): 0.94 ± 0.43 J/K/mol
excess molar heat capacity ([3]; 298.15 K, x1 = 0.9437): 0.47 ± 0.43 J/K/mol
excess molar heat capacity ([3]; 303.15 K, x1 = 0.04991): 1.74 ± 0.43 J/K/mol
excess molar heat capacity ([3]; 303.15 K, x1 = 0.09952): 1.95 ± 0.43 J/K/mol
excess molar heat capacity ([3]; 303.15 K, x1 = 0.1989): 3.16 ± 0.44 J/K/mol
excess molar heat capacity ([3]; 303.15 K, x1 = 0.2988): 3.76 ± 0.44 J/K/mol
excess molar heat capacity ([3]; 303.15 K, x1 = 0.4015): 3.35 ± 0.44 J/K/mol
excess molar heat capacity ([3]; 303.15 K, x1 = 0.4841): 3.15 ± 0.44 J/K/mol
excess molar heat capacity ([3]; 303.15 K, x1 = 0.5535): 3.16 ± 0.44 J/K/mol
excess molar heat capacity ([3]; 303.15 K, x1 = 0.6972): 2.27 ± 0.44 J/K/mol
excess molar heat capacity ([3]; 303.15 K, x1 = 0.7927): 1.52 ± 0.43 J/K/mol
excess molar heat capacity ([3]; 303.15 K, x1 = 0.8822): 0.89 ± 0.43 J/K/mol
excess molar heat capacity ([3]; 303.15 K, x1 = 0.9437): 0.22 ± 0.43 J/K/mol
excess molar heat capacity ([3]; 313.15 K, x1 = 0.04991): 2.85 ± 0.44 J/K/mol
excess molar heat capacity ([3]; 313.15 K, x1 = 0.09952): 3.92 ± 0.45 J/K/mol
excess molar heat capacity ([3]; 313.15 K, x1 = 0.1989): 5.28 ± 0.45 J/K/mol
excess molar heat capacity ([3]; 313.15 K, x1 = 0.2988): 5.95 ± 0.46 J/K/mol
excess molar heat capacity ([3]; 313.15 K, x1 = 0.4015): 5.35 ± 0.46 J/K/mol
excess molar heat capacity ([3]; 313.15 K, x1 = 0.4841): 4.97 ± 0.45 J/K/mol
excess molar heat capacity ([3]; 313.15 K, x1 = 0.6972): 3.48 ± 0.44 J/K/mol
excess molar heat capacity ([3]; 313.15 K, x1 = 0.7927): 2.27 ± 0.44 J/K/mol
excess molar heat capacity ([3]; 313.15 K, x1 = 0.8822): 1.65 ± 0.43 J/K/mol
excess molar heat capacity ([3]; 313.15 K, x1 = 0.9437): 0.62 ± 0.43 J/K/mol

OCCCO [propan-1,3-diol]
molar heat capacity at constant pressure ([1]; 283.15 K): 169.44 ± 7.2 J/K/mol
molar heat capacity at constant pressure ([1]; 293.15 K): 174.37 ± 7.4 J/K/mol
molar heat capacity at constant pressure ([1]; 298.15 K): 176.91 ± 7.5 J/K/mol
molar heat capacity at constant pressure ([1]; 303.15 K): 179.52 ± 7.6 J/K/mol
molar heat capacity at constant pressure ([1]; 313.15 K): 185.09 ± 7.9 J/K/mol
mass density ([2]; 283.15 K): 1059.14 ± 0.96 kg/m3
mass density ([2]; 293.15 K): 1052.85 ± 0.95 kg/m3
mass density ([2]; 298.15 K): 1049.68 ± 0.94 kg/m3
mass density ([2]; 303.15 K): 1046.51 ± 0.93 kg/m3
mass density ([2]; 313.15 K): 1040.12 ± 0.92 kg/m3
